The text below walks through data of ChEMBL document CHEMBL5634123, “Design and synthesis of 1H-benzo[d]imidazole selective HDAC6 inhibitors with potential therapy for multiple myeloma” (Eur J Med Chem, 2023).

Molecules are shown by their SMILES.

One experiment concerns SGC-7901. Kind of experiment: Cytotoxicity against human SGC-7901 cells assessed as inhibition of cell viability incubated for 24 hrs by CCK8 assay. The experiment is classed as functional, cell-based. As to conditions: SGC-7901, 24 h. A general note: Formazan colour is commonly taken as a measure of viable cells.
The target in experiment [1] is T1, Protein deacetylase HDAC6 (Homo sapiens, UniProt Q9UBN7).
T1 sequence (Q9UBN7 whole entry): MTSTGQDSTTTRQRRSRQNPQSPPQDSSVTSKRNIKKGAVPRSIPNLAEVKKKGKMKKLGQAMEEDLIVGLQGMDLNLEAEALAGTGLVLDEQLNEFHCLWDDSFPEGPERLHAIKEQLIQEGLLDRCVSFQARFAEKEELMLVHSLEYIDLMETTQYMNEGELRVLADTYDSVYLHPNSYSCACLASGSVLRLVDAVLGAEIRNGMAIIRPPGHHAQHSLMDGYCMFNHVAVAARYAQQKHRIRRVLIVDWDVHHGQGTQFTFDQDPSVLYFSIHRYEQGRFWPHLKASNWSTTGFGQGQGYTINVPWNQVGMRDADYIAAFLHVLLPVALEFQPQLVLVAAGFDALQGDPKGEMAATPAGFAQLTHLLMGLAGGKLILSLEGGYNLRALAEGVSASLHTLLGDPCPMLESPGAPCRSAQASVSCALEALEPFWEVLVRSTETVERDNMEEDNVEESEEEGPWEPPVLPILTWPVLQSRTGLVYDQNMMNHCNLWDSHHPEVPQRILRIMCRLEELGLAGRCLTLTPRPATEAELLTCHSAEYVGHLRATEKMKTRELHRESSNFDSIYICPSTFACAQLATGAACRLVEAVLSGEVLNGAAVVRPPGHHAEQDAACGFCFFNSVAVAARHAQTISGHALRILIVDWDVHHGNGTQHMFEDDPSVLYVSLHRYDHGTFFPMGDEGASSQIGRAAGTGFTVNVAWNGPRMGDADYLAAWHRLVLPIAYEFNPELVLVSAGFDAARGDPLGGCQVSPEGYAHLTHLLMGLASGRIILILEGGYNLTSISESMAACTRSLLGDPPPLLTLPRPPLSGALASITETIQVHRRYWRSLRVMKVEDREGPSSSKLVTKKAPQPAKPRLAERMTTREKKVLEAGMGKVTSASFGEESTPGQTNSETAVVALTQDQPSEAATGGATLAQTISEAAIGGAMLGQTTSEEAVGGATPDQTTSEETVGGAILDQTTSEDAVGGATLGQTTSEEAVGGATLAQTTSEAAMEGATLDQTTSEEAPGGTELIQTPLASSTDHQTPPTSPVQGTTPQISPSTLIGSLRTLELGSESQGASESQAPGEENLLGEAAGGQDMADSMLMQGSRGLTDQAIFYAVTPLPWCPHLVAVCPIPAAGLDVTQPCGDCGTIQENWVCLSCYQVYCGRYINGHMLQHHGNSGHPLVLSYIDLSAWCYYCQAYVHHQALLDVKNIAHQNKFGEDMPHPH
Nature of the experiment: Inhibition of HDAC6 (unknown origin) preincubated for 10 mins followed by substrate addition measured for 1 hr by fluorescence based assay.

A further experiment relates to HCCLM3. Kind of experiment: Cytotoxicity against human HCCLM3 cells assessed as inhibition of cell viability incubated for 24 hrs by CCK8 assay. The following applies: HCCLM3, 24 h. The experiment is classed as functional, cell-based.
The next experiment relates to HCT-116. Nature of the experiment: Cytotoxicity against human HCT-116 cells assessed as inhibition of cell viability incubated for 24 hrs by CCK8 assay. As to conditions: HCT-116, 24 h. The experiment is classed as functional, cell-based.
The test system of the next experiment is RPMI-8226. Nature of the experiment: cells. The following applies: Homo sapiens, RPMI-8226, 24 h.
A further experiment concerns MDA-MB-468. Nature of the experiment: cells. As to conditions: Homo sapiens, MDA-MB-468, 24 h.
A further experiment addresses Histone deacetylase 1 (Homo sapiens, UniProt Q13547). Nature of the experiment: Inhibition of HDAC1 (unknown origin) preincubated for 10 mins followed by substrate addition measured for 1 hr by fluorescence based assay.
In experiment [2] the target is T2, Protein deacetylase HDAC6 (Homo sapiens) (UniProt Q9UBN7).
T2 sequence (whole entry): T1 sequence (Q9UBN7 whole entry)
Nature of the experiment: Inhibition of HDAC6 (unknown origin) at 1 uM preincubated for 10 mins followed by substrate addition measured for 1 hr by fluorescence based assay relative to control. As to conditions: time 70.0 min.

Histone deacetylase 1, sequence (Q13547 whole entry): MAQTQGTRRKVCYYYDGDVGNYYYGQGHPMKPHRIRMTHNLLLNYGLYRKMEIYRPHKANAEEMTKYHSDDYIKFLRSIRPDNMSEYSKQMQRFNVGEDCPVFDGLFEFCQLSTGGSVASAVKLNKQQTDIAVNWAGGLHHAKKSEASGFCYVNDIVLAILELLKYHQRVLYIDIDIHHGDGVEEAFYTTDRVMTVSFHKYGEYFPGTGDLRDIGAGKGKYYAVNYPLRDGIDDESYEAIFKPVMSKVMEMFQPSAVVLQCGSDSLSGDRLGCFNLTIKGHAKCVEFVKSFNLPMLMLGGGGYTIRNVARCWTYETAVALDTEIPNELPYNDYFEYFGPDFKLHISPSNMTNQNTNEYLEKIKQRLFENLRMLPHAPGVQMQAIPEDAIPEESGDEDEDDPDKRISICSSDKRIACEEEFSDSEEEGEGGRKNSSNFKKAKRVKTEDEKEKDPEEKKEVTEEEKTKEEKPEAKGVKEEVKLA

As for `Cc1cccc(NCc2nc3cc(C(=O)NO)ccc3n2C)c1`, the IC50 (as a rule, the point on the concentration scale where inhibition reaches its midpoint) in the experiment with SGC-7901 was 27900 nM; in experiment [1], 11.8 nM; in the experiment with HCCLM3 it was more than 50000 nM; in the experiment with HCT-116 it was 16000 nM; with RPMI-8226 it was 1620 nM; in the experiment with MDA-MB-468, more than 50000 nM.

Take `CCCCN(Cc1nc2cc(C(=O)NO)ccc2n1C)c1ccccc1`: the IC50 is 2830 nM with SGC-7901; 9.55 nM in experiment [1]; 3490 nM in the experiment on HCCLM3; 3120 nM in the experiment on HCT-116; 634 nM on Histone deacetylase 1; 934 nM in the experiment on RPMI-8226. In the experiment with MDA-MB-468, this molecule came in with an IC50 of 8170 nM.

Consider `O=C(NO)c1ccc2nc[nH]c2c1`, for which the figures for the half-maximal inhibitory concentration (IC50) (in experiment [1]; against Histone deacetylase 1) were 4350 nM and more than 10000 nM, respectively.

Take `Cn1c(CNc2cccc3ccccc23)nc2cc(C(=O)NO)ccc21`: the 50% inhibitory concentration (IC50) worked out at 518 nM in the experiment on SGC-7901; 5.87 nM in experiment [1]; 781 nM with HCCLM3; 9360 nM in the experiment on HCT-116; 834 nM against Histone deacetylase 1; 320 nM with RPMI-8226. Moreover, the IC50 in the experiment with MDA-MB-468 was 6730 nM.

With `Cn1c(CNc2ccccc2)nc2ccc(C(=O)NO)cc21`, the inhibition (in general, how much of the control response was suppressed) in experiment [2] is 64.1%.

Turning to `CCCN(Cc1nc2cc(C(=O)NO)ccc2n1C)c1ccccc1`, the IC50 was 8690 nM with SGC-7901; 12.8 nM in experiment [1]; 4800 nM with HCCLM3; 2060 nM in the experiment on HCT-116; 2390 nM in the experiment on RPMI-8226; more than 50000 nM in the experiment on MDA-MB-468.

Regarding `Cn1c(CSc2ccccc2)nc2cc(C(=O)NO)ccc21`, the IC50 in experiment [1] was determined as 28.1 nM.

`C[C@@H](NCc1ccccc1)c1nc2cc(C(=O)NO)ccc2n1C`: the IC50 was 1650 nM in the experiment on SGC-7901; 5.83 nM in experiment [1]; 1450 nM with HCCLM3; 508 nM in the experiment with HCT-116; 841 nM against Histone deacetylase 1; 709 nM in the experiment on RPMI-8226. This molecule also came in with an IC50 in the experiment on MDA-MB-468 of 6010 nM.

Regarding `CCN(Cc1nc2cc(C(=O)NO)ccc2n1C)c1ccccc1`, the IC50 is 4200 nM in the experiment on SGC-7901; 10.3 nM in experiment [1]; 4510 nM with HCCLM3; 500 nM in the experiment with HCT-116; 1380 nM in the experiment on RPMI-8226; more than 50000 nM with MDA-MB-468.

For `Cn1c(CNCc2ccccc2)nc2cc(C(=O)NO)ccc21`, the IC50 stood at 5100 nM in the experiment with SGC-7901; 14.4 nM in experiment [1]; 2620 nM in the experiment on HCCLM3; 1330 nM in the experiment with HCT-116; 976 nM against Histone deacetylase 1; 349 nM in the experiment on RPMI-8226. In the experiment with MDA-MB-468, this molecule showed a half-inhibitory concentration (IC50) of 10800 nM.

In the case of `Cn1c(CNc2ccccc2)nc2cc(C(=O)NO)ccc21`, the IC50 in the experiment with SGC-7901 is more than 50000 nM; in experiment [1], 15.8 nM; in the experiment on HCCLM3, 41500 nM; in the experiment on HCT-116, 17200 nM; in the experiment on RPMI-8226 it was 2060 nM; in the experiment with MDA-MB-468, 9600 nM.

In experiment [1], `Cn1c(CN2CCC3(CC2)OCCO3)nc2cc(C(=O)NO)ccc21` displayed an IC50 of 36.4 nM.

`O=C(NO)c1ccc2c(c1)nc(CNc1ccccc1)n2C1CC1` came in with an IC50 in experiment [1] of 898 nM.

In experiment [1], `Cn1c(CNc2ccc(F)cc2)nc2cc(C(=O)NO)ccc21` displayed an IC50 of 18.4 nM.

`O=C(NO)c1ccc2c(c1)ncn2CCc1ccccc1` registered an inhibition in experiment [2] of 70.3%.

`Cc1ccc(NCc2nc3cc(C(=O)NO)ccc3n2C)cc1` gave an IC50 in experiment [1] of 19.4 nM.

On to `Cc1ccccc1NCc1nc2cc(C(=O)NO)ccc2n1C`, for which the IC50 with SGC-7901 was 10800 nM; in experiment [1], 15.8 nM; in the experiment with HCCLM3, 15000 nM; in the experiment with HCT-116, 6300 nM; in the experiment on RPMI-8226 it was 2190 nM; with MDA-MB-468, 5530 nM.

In turn, `O=C(NO)c1ccc2ncn(CCc3ccccc3)c2c1` had an inhibition in experiment [2] of 23.4%.

In the case of `CC(C)n1c(CNc2ccccc2)nc2cc(C(=O)NO)ccc21`, the IC50 in experiment [1] amounted to 1510 nM.

For the molecule `CCn1c(CNc2ccccc2)nc2cc(C(=O)NO)ccc21`, in experiment [1], 853 nM corresponded to half-maximal inhibition (IC50).

Consider `CN(Cc1nc2cc(C(=O)NO)ccc2n1C)c1ccccc1`, for which the IC50 came out at 3690 nM in the experiment with SGC-7901; 8.91 nM in experiment [1]; 6690 nM in the experiment with HCCLM3; 9950 nM with HCT-116; 567 nM on Histone deacetylase 1; 661 nM in the experiment with RPMI-8226. For the same molecule, inhibition in the experiment with MDA-MB-468 was half-maximal at 4930 nM (IC50).

In the case of `Cn1c([C@H](Cc2ccccc2)NCc2ccccc2)nc2cc(C(=O)NO)ccc21`, the IC50 with SGC-7901 was 40800 nM; in experiment [1], 7.58 nM; in the experiment with HCCLM3 it was more than 50000 nM; in the experiment with HCT-116, 5520 nM; with RPMI-8226 it was 2040 nM; in the experiment with MDA-MB-468, 44000 nM.

`Cn1c(CNc2cccc(F)c2)nc2cc(C(=O)NO)ccc21`: the IC50 was 13600 nM in the experiment on SGC-7901; 6.78 nM in experiment [1]; 5180 nM in the experiment on HCCLM3; 1430 nM in the experiment with HCT-116; 1870 nM in the experiment on RPMI-8226; 3760 nM with MDA-MB-468.

With `Cn1c(CNc2ccccc2F)nc2cc(C(=O)NO)ccc21`, the half-inhibitory concentration (IC50) in the experiment with SGC-7901 is 5810 nM; in experiment [1], 13.8 nM; in the experiment with HCCLM3, 14400 nM; in the experiment with HCT-116, more than 50000 nM; in the experiment with RPMI-8226, 2470 nM; in the experiment with MDA-MB-468 it was 8580 nM.

In the case of `C[C@H](NCc1ccccc1)c1nc2cc(C(=O)NO)ccc2n1C`, the concentration for half-maximal inhibition (IC50) in the experiment on SGC-7901 came to 2400 nM; in experiment [1], 9.22 nM; in the experiment with HCCLM3 it was 2420 nM; in the experiment with HCT-116 it was 6420 nM; in the experiment with RPMI-8226, 1050 nM; in the experiment on MDA-MB-468, 9160 nM.

As for `Cn1c(CN2CCCCC2)nc2cc(C(=O)NO)ccc21`, in experiment [1], the IC50 is 34.2 nM.

For `Cn1c(COc2ccccc2)nc2cc(C(=O)NO)ccc21`, the 50% inhibitory concentration (IC50) in the experiment with SGC-7901 was determined as 9810 nM; in experiment [1], 12.6 nM; with HCCLM3, 8720 nM; in the experiment with HCT-116, 2260 nM; with RPMI-8226, 2520 nM; in the experiment with MDA-MB-468, 7960 nM.

Turning to `O=C(NO)c1ccc2nc(CCc3ccccc3)[nH]c2c1`, the IC50 in experiment [1] stood at 69.2 nM.

`CCCCN(Cc1nc2cc(C(=O)NO)ccc2n1C)c1cccc(F)c1`: the IC50 was found to be 6530 nM in the experiment on SGC-7901; 12.8 nM in experiment [1]; 4430 nM with HCCLM3; 3580 nM in the experiment on HCT-116; 1330 nM in the experiment on RPMI-8226; 10500 nM with MDA-MB-468.
